Earlier results in patent publication US20260146034A1, “1H-CYCLOPENTA[B]BENZOFURAN DERIVATIVES FOR THE PREVENTION AND TREATMENT OF VIRUS DISEASES” (priority 2022, published 2026).

Assays:
SARS-COV-2 = details: eFFECTOR's Therapeutic, Apr. 30, 2020
coronavirus = details: J. Virology, 2011, 6381
[1] = tested on: RNA helicase enzyme elF4A; details: previous studies
[2] = tested on: corona viruses, SARS and MERS virus

Question: Which “anti viral activity against SARS-COV-2” value (SARS-COV-2) does the source give for `COc1cc2c(c(OC)n1)[C@]1(O)[C@H](O)[C@H](CN(C)C)[C@@H](c3ccccc3)[C@]1(c1ccc(C#N)cc1)O2` [Zotatifin] here?
Answer: shows anti viral activity

Question: Which blocking coronavirus replication (coronavirus) does the source give for 4E2RCat here?
Answer: capable of blocking coronavirus replication

Question: Which “inhibition of the RNA helicase enzyme elF4A” value [1] does the source give for Silvesterol here?
Answer: potent and selective inhibitor

Question: And the “antiviral activity against corona viruses, SARS and MERS virus” value [2]?
Answer: broadspectrum antiviral activity
